Test results as given in ChEMBL document CHEMBL4229426, “Synthesis, antitumor activity evaluation and mechanistic study of novel hederacolchiside A1 derivatives bearing an aryl triazole moiety” (Bioorg Med Chem, 2018).

Assays:
Type in all cases: functional, cell-based
U-937 = test: Antiproliferative activity against human U937 cells after 48 hrs by MTT assay; conditions: U-937, 48 h
A549 = test: Antiproliferative activity against human A549 cells after 48 hrs by MTT assay; conditions: A549, 48 h
HT-29 = test: Antiproliferative activity against human HT-29 cells after 48 hrs by MTT assay; conditions: HT-29, 48 h
HL-60 = test: Antiproliferative activity against human HL60 cells after 48 hrs by MTT assay; conditions: HL-60, 48 h
HepG2 = test: Antiproliferative activity against human HepG2 cells after 48 hrs by MTT assay; conditions: HepG2, 48 h
PC-3 = test: Antiproliferative activity against human PC3 cells after 48 hrs by MTT assay; conditions: PC-3, 48 h

Row | Compound | IC50 (U-937) | IC50 (A549) | IC50 (HT-29) | IC50 (HL-60) | IC50 (HepG2) | IC50 (PC-3)
1 | C[C@@H]1O[C@@H](O[C@H]2[C@H](O[C@H]3CC[C@]4(C)[C@H]5CC=C6[C@@H]7CC(C)(C)CC[C@]7(C(=O)NCc7cn(-c8ccccc8[N+](=O)[O-])nn7)CC[C@@]6(C)[C@]5(C)CC[C@H]4C3(C)C)OC[C@H](O[C@@H]3O[C@H](CO)[C@@H](O)[C@H](O)[C@H]3O)[C@@H]2O)[C@H](O)[C@H](O)[C@H]1O | 40.1 µM | 54.9 µM | 7.76 µM | 36.7 µM | 34.9 µM | 50.5 µM
2 | C[C@@H]1O[C@@H](O[C@H]2[C@H](O[C@H]3CC[C@]4(C)[C@H]5CC=C6[C@@H]7CC(C)(C)CC[C@]7(C(=O)NCc7cn(-c8c(Cl)cccc8Cl)nn7)CC[C@@]6(C)[C@]5(C)CC[C@H]4C3(C)C)OC[C@H](O[C@@H]3O[C@H](CO)[C@@H](O)[C@H](O)[C@H]3O)[C@@H]2O)[C@H](O)[C@H](O)[C@H]1O | 18.4 µM | 6.68 µM | 37.8 µM | 28.2 µM | 23 µM | 41.9 µM
3 | COc1cccc(-n2cc(CNC(=O)[C@]34CCC(C)(C)C[C@H]3C3=CC[C@@H]5[C@@]6(C)CC[C@H](O[C@@H]7OC[C@H](O[C@@H]8O[C@H](CO)[C@@H](O)[C@H](O)[C@H]8O)[C@H](O)[C@H]7O[C@@H]7O[C@@H](C)[C@H](O)[C@@H](O)[C@H]7O)C(C)(C)[C@@H]6CC[C@@]5(C)[C@]3(C)CC4)nn2)c1 | 5.9 µM | 2.45 µM | 3.48 µM | 5.66 µM | 1.66 µM | 0.23 µM
4 | C[C@@H]1O[C@@H](O[C@H]2[C@H](O[C@H]3CC[C@]4(C)[C@H]5CC=C6[C@@H]7CC(C)(C)CC[C@]7(C(=O)NCc7cn(-c8ccc(F)cc8)nn7)CC[C@@]6(C)[C@]5(C)CC[C@H]4C3(C)C)OC[C@H](O[C@@H]3O[C@H](CO)[C@@H](O)[C@H](O)[C@H]3O)[C@@H]2O)[C@H](O)[C@H](O)[C@H]1O | 0.48 µM | 1.02 µM | 2.32 µM | 1.8 µM | 3.18 µM | 5.78 µM
5 | C[C@@H]1O[C@@H](O[C@H]2[C@H](O[C@H]3CC[C@]4(C)[C@H]5CC=C6[C@@H]7CC(C)(C)CC[C@]7(C(=O)NCc7cn(-c8ccccc8)nn7)CC[C@@]6(C)[C@]5(C)CC[C@H]4C3(C)C)OC[C@H](O[C@@H]3O[C@H](CO)[C@@H](O)[C@H](O)[C@H]3O)[C@@H]2O)[C@H](O)[C@H](O)[C@H]1O | 8.79 µM | 3.74 µM | 9.3 µM | 18.5 µM | 25.8 µM | 45 µM
6 | CC(=O)c1ccccc1-n1cc(CNC(=O)[C@]23CCC(C)(C)C[C@H]2C2=CC[C@@H]4[C@@]5(C)CC[C@H](O[C@@H]6OC[C@H](O[C@@H]7O[C@H](CO)[C@@H](O)[C@H](O)[C@H]7O)[C@H](O)[C@H]6O[C@@H]6O[C@@H](C)[C@H](O)[C@@H](O)[C@H]6O)C(C)(C)[C@@H]5CC[C@@]4(C)[C@]2(C)CC3)nn1 | 11.3 µM | 10.5 µM | 35.6 µM | 14.3 µM | 12.4 µM | 49.6 µM
7 | C[C@@H]1O[C@@H](O[C@H]2[C@H](O[C@H]3CC[C@]4(C)[C@H]5CC=C6[C@@H]7CC(C)(C)CC[C@]7(C(=O)NCc7cn(-c8cccc(Br)c8)nn7)CC[C@@]6(C)[C@]5(C)CC[C@H]4C3(C)C)OC[C@H](O[C@@H]3O[C@H](CO)[C@@H](O)[C@H](O)[C@H]3O)[C@@H]2O)[C@H](O)[C@H](O)[C@H]1O | 0.72 µM | 0.89 µM | 1.77 µM | 0.99 µM | 7.29 µM | 0.49 µM
8 | C[C@@H]1O[C@@H](O[C@H]2[C@H](O[C@H]3CC[C@]4(C)[C@H]5CC=C6[C@@H]7CC(C)(C)CC[C@]7(C(=O)NCc7cn(-c8ccccc8F)nn7)CC[C@@]6(C)[C@]5(C)CC[C@H]4C3(C)C)OC[C@H](O[C@@H]3O[C@H](CO)[C@@H](O)[C@H](O)[C@H]3O)[C@@H]2O)[C@H](O)[C@H](O)[C@H]1O | 4.51 µM | 7.09 µM | 30.9 µM | 5.45 µM | 5.39 µM | 39.3 µM
9 | C[C@@H]1O[C@@H](O[C@H]2[C@H](O[C@H]3CC[C@]4(C)[C@H]5CC=C6[C@@H]7CC(C)(C)CC[C@]7(C(=O)O)CC[C@@]6(C)[C@]5(C)CC[C@H]4C3(C)C)OC[C@H](O[C@@H]3O[C@H](CO)[C@@H](O)[C@H](O)[C@H]3O)[C@@H]2O)[C@H](O)[C@H](O)[C@H]1O [HEDERACOLCHISIDE A1] | 2.37 µM | 5.41 µM | 4.77 µM | 3.13 µM | 4.21 µM | 0.85 µM
10 | C[C@@H]1O[C@@H](O[C@H]2[C@H](O[C@H]3CC[C@]4(C)[C@H]5CC=C6[C@@H]7CC(C)(C)CC[C@]7(C(=O)NCc7cn(-c8ccc(C(F)(F)F)cc8)nn7)CC[C@@]6(C)[C@]5(C)CC[C@H]4C3(C)C)OC[C@H](O[C@@H]3O[C@H](CO)[C@@H](O)[C@H](O)[C@H]3O)[C@@H]2O)[C@H](O)[C@H](O)[C@H]1O | 0.95 µM | 4.9 µM | 4.56 µM | 5.23 µM | 2.45 µM | 3.98 µM
